Measured values as given in ChEMBL document CHEMBL3507680, “University of Dundee, Gates Library screen for HepG2 cell viability”.

Assay: Human HepG2 cell viability assay in 384 well format
Assay type: toxicity, cell-based
Set-up: dose 125 nL, time 70.5 hour; cytotoxicity at 70.5 h: concentration not given beside the values
Details: HepG2 cells, read-out: Inhibition

SMILES | cytotoxicity at 70.5 h
CN(CC1COc2ccccc2O1)C(=O)NCCCn1ccnc1 (centres undefined) | 33.9%
COc1ccc(C(O)CNC(=O)NCCc2csc(C)n2)cc1 (centres undefined) | -4.45%
CC(C)(O)CCc1cccc(C(=O)N2Cc3cnn(CCO)c3C2)c1 | -17.1%
COCCC(=O)N1CCCC(c2nc(O)cc(-c3ccncc3)n2)C1 (centres undefined) | 18%
CCCn1nc(C)c(CN2CC3(CCOC3)CCC2=O)c1C (centres undefined) | -8.62%
COCC(=O)N1C[C@@H](c2cc(O)nc(C)n2)[C@H](c2ccccc2F)C1 | 13%
Cc1cc(C)c(CNC(=O)N2CCC(N3CCCCC3)CC2)c(=O)[nH]1 | -7.65%
Cc1nccn1-c1nccnc1C1CCCN(C2CCCC2)C1 (centres undefined) | 14.2%
CCN1CCN2CCCN(S(=O)(=O)c3cccc(F)c3)C2C1=O (centres undefined) | -8.84%
Cc1ccc2c(c1)N(C(=O)c1nccnc1N)CC(C)O2 (centres undefined) | -3.11%
Cc1nc(CCN2CCC(Oc3ccccc3F)CC2)cs1 | 9.73%
COc1ncccc1CNC(=O)c1cc(C)on1 | -8.23%
NS(=O)(=O)c1ccc(C(=O)N2CCCC2c2ccccc2)o1 (centres undefined) | -3.63%
CCn1cnnc1C1CCN(C(=O)c2cnc(C)s2)CC1 | -12.3%
Cc1nc(C)c(CC(=O)Nc2nnc(C3CC3)s2)c(=O)[nH]1 | -7.66%
CN(C)c1ccc(C(=O)N2CCN(CC(O)C(C)(C)C)CC2)nn1 (centres undefined) | 0.302%
CCNC(=O)c1ccc2ccc(N(CC)CC)n2c1 | -8.54%
Cc1ccsc1C(=O)NCc1ccnc(OCC(F)(F)F)c1 | -5.25%
COc1ccc(CC(=O)N2CC[C@H](CO)[C@H](O)C2)c(OC)c1 | -7.77%
O=S(=O)(Cc1cccc(F)c1)NCC(O)Cc1ccccc1 (centres undefined) | -10.7%
O=C(CCSc1ccccc1F)N1CCN(c2cnccn2)CC1 | 11%
O=C(NC1CCNCC1)C1(N2CCCCC2)Cc2ccccc2C1 | 13.5%
CO[C@H]1CN(Cc2nc3ccccc3n2C)CC[C@@]12CCCO2 | -4.2%

SMILES | cytotoxicity at 70.5 h
CCCc1nc(C)cc(N2CCNC(C(=O)NC3CC3)C2)n1 (centres undefined) | 2.45%
O=C(c1c[nH]cn1)N1CCC(F)(F)C2(CCN(c3ccccn3)C2)C1 (centres undefined) | -4.42%
CN(Cc1nnc2ccccn12)C(=O)NC1CCCCC1 | -4.44%
O=C(O)[C@@H]1CN(C(=O)CC2CCCC2)C[C@H]1c1ccc(F)cc1 | -6.35%
CCc1nc(CNCC2(C(N)=O)CCOCC2)cs1 | -4.76%
Cc1ccc(C(CNCC2CC2)N2CCOCC2)s1 (centres undefined) | 11.7%
CN(Cc1ccno1)c1nc(C2CCCC2)nc2c1cnn2C | -2.09%
COC1CCN(C(=O)Nc2cc(C(F)(F)F)c[nH]c2=O)CC1 | -6.98%
CCn1cnnc1C1CCN(C(=O)c2ccc(OC(C)C)nc2)CC1 | 5.53%
Cc1ccc(C(=O)NCC(O)CN2CCCC2=O)cc1Cl (centres undefined) | 6.85%
CN(C)C(=O)[C@H]1C[C@@H]2CCN(C3CCOCC3)C[C@H]2O1 | -8.09%
Cc1ccc(C(=O)NCC(O)c2cnn(C)c2)c(Br)c1 (centres undefined) | -14.7%
CCc1cnc2c(c1Nc1cccc(OC)c1)c(=O)n(C)c(=O)n2C | 1.18%
CCc1ccc(NC(=O)N2Cc3c(CN(C)C)nn(C)c3C2)cc1 | -2.56%
CCOCCCNC(=O)CCCC(=O)n1nc(C)c2ccccc21 | -3.2%
COc1cccc(CN(C)C(C)c2nccs2)c1OCCn1ccnc1 (centres undefined) | -3.88%
CC[C@H]1CN(S(C)(=O)=O)CC[C@H]1CC(=O)NCCSC | -2.51%
CN(CCSc1ccccc1)C(=O)c1cn2c(n1)CNCC2 | -12.8%
CCC(C)N(Cc1sccc1C)C(=O)c1cnc[nH]1 (centres undefined) | -6.28%
CCc1nc(CN2CCCN(c3ncnc4ccccc34)CC2)no1 | 40.8%
FC(F)(F)CCc1ccnc(N2CCN(Cc3ccncc3)CC2)n1 | -13.8%
O=C(CNc1cc2c(cc1Br)OCCO2)NC1CCS(=O)(=O)C1 (centres undefined) | -2.07%
COCC(=O)N1CCC2(CC1)CN(CC1CC1)c1ccc(F)cc12 | 2.37%

SMILES | cytotoxicity at 70.5 h
NC(=O)CN1C[C@@H](c2ccccc2F)[C@@]2(CCCCC(=O)N2)C1 | -7.09%
Cn1ccc2c(C(=O)NCCCS(C)(=O)=O)cccc21 | 5.4%
Cc1ccc(NC(=O)N(C)C)c(C(=O)OCC(=O)NC2CCCC2)c1 | -0.892%
CC(C)(C)SCC(=O)NC(C)(C(N)=O)c1cccc(Cl)c1 (centres undefined) | -6.38%
COc1cccc(Cl)c1-c1cc(CN)ccc1F | -13.8%
CS(=O)(=O)N1Cc2ccnn2CC(C(=O)NCc2cccnc2)C1 (centres undefined) | 20.5%
COCC(=O)N1CCC(c2cccc(Cc3ccc(F)cc3)n2)CC1 | -6.39%
O=C(CC1CCCO1)NCCc1ccccc1Br (centres undefined) | -2.65%
Cc1nn(C)c(C)c1CNCc1cccnc1N1CCOCC1 | -7.44%
CNC(=O)N1CC[C@@H]2CN(CCc3cccc(OC)c3)S(=O)(=O)[C@@H]2CC1 | -0.824%
CNc1snc(C)c1C(=O)N1CCCC(n2ccnc2C(C)C)C1 (centres undefined) | -5.8%
Cn1cc(CNC(=O)C2COCC(=O)N2Cc2ccccc2)cn1 (centres undefined) | 2.62%
Cc1c(I)cccc1C(=O)NCC1(CO)CC1 | -7.8%
COCCC(=O)N1CCCC(c2n[nH]cc2C)C1 (centres undefined) | 15.1%
CCN(CC)C(=O)c1c(Cl)cnn1CC | -0.536%
O=C1CCC2(CCN(Cc3cc(F)cc(F)c3)CC2)CN1CCO | -1.2%
CN(Cc1ccc(F)c2cccnc12)C1CCS(=O)(=O)C1 (centres undefined) | -9.82%
CC(C)N1CCC2(CC1)NC(=O)c1cc(Br)ccc1-n1nnnc12 | -4.14%
c1cncc(OCC2CN(Cc3ccco3)Cc3nccn3C2)c1 (centres undefined) | 21.3%
C[C@H](NC(=O)C1CC1)c1nc2cc(-c3ccc(F)cc3)ncn2n1 | 2.87%
CC(=O)N1CCC2(CC1)CC(NS(C)(=O)=O)c1ccccc1O2 (centres undefined) | -4.04%
CCC(=O)NC1CCCN(C(=O)c2ccc(OCC3CC3)nc2)C1 (centres undefined) | 15.5%
O=S(=O)(CCNCCn1cccn1)c1ccccc1 | -18.7%

SMILES | cytotoxicity at 70.5 h
CN1CCCN(C(=O)c2cnc(Cc3c(Cl)cccc3Cl)nc2O)CC1 | -3.04%
Cc1cnc(-c2nc(O)c3c(n2)CN(C(=O)CC2CCCC2)CC3)cn1 | -2.15%
CCCS(=O)(=O)N1CCN(CC(F)(F)F)CC1 | -5.82%
OCC1(Cc2ccc(Cl)cc2)CCN(Cc2cccnc2)CC1 | 10.8%
Cc1nnc(NC(=O)CN2CCCC2c2noc(C(C)C)n2)s1 (centres undefined) | -8.98%
CSCc1noc(CNC2CCCC(C)(C)C2)n1 (centres undefined) | -5.82%
Cc1ccccc1SC1CCN(C(=O)C2CNCC(=O)N2)CC1 (centres undefined) | -1.6%
Cc1n[nH]c(C)c1CNC(=O)NC1CCCN(c2ccccc2F)C1 (centres undefined) | 6.33%
CN(C)C(C(=O)N1CCCN(C(=O)C2CCC2)CC1)c1ccccc1F (centres undefined) | -9.38%
COc1ccc(CN2CCCC2Cn2nc(C)nc2C)cc1F (centres undefined) | -18.3%
CCOc1cc(C)nc(N2CCN(C(=O)c3cc(Cl)c[nH]3)CC2)n1 | -8.74%
CSCc1noc(CNC(=O)C2CCN(C(=O)C3CCC3)CC2)n1 | -11.8%
COc1ccc(-c2ccnc3c2C(=O)CCC3)cc1 | 25.7%
CC(=O)c1cn(CC(=O)N2CCC(O)(CO)CC2)c2ccccc12 | -0.902%
Cc1cnn(CCNCc2csc(-c3ccc(C(N)=O)cc3)n2)c1 | -1.79%
Cc1nc(CN2CCCn3nc(CNC(=O)C4CCC4)cc3C2)co1 | 0.506%
CN(C)c1ccc(C(=O)N(CCO)CC2CC2)c(F)c1 | 30.4%
OC(COCc1cccs1)CN1CCC(c2ccn[nH]2)CC1 (centres undefined) | -17.6%
Cc1cccc(NCc2nc(C)ccc2O)c1 | -1.28%
O=C(c1ccc(-n2cnnc2)cc1Cl)N1CCCC(O)(CO)CC1 (centres undefined) | 15.6%
CCc1cnc(N2C[C@H]3CCCC(N(C)Cc4ccccn4)[C@H]3C2)nc1 (some centres undefined) | -10.1%
CC(C)NC(=O)[C@@H]1CC[C@@H]2[C@@H](CCN2Cc2cn(C)c3ccccc23)O1 | -2.33%
CC(=O)Nc1cccc(C(=O)Nc2cnc3n2CCCC3)c1 | -5.75%

SMILES | cytotoxicity at 70.5 h
COc1cccc(CCC2CCCN(Cc3ncc[nH]3)C2)c1 (centres undefined) | 29.4%
CC(C)c1nccn1C1CCCN(C(=O)CN(C)C2CC2)C1 (centres undefined) | -2.03%
Cc1cc(C)c2nc(C)cc(C(=O)N3CC(O)CO3)c2c1 (centres undefined) | 17.6%
CN(C)C(=O)Cc1nc(CN2CCn3c(nnc3C3CC3)C2)cs1 | -18.5%
CN1CCN(C2CCN(Cc3ccc(Cl)cc3)CC2)C1=O | -2.16%
COCC(=O)N(Cc1ccc2cc[nH]c2c1)C1CC1 | -21%
COc1ccc(S(=O)(=O)Cc2cc(C)on2)cc1 | -4.34%
COc1ccc(C(=O)NCCCNc2ncccn2)c(OC)c1 | -7.46%
CCc1cc(C(=O)N2CCCC2c2nc(C)c(F)c(O)n2)on1 (centres undefined) | 4.3%
CCn1cc(S(=O)(=O)N2CCC(C)Sc3ccccc32)cn1 (centres undefined) | -1.33%
CN1CCN(CC2CC2)C(=O)C12CCN(C(=O)c1cnccn1)CC2 | -3.74%
COCC(c1cccc(C(F)(F)F)c1)N(C)C(=O)c1ccoc1 (centres undefined) | -3.47%
CN1CCn2c(-c3cccc(F)c3)cnc2C12CCN(CC1CC1)CC2 | 4.4%
Cc1ccc(OCCN2CCC(c3nc(C)n4c(C)csc34)CC2)cc1 | 3.59%
Cc1ccc(-c2nnc(CN3CC[C@H](CO)[C@@H](O)C3)o2)n1C | -2.96%
Cc1nc(N(C)CCCc2nccn2C)c2nc(C)oc2n1 | -11.8%
CCCc1c(C(=O)N2CCN(c3nccc(OC)n3)CC2)cnn1C | -5.72%
CN1CCCN(c2cnn(Cc3ccc(C(C)(C)C)cc3)c(=O)c2)CC1 | -8.93%
Cc1cc(C)n(C2CCCN(C(=O)c3c(C)c(C)n[nH]c3=O)C2)n1 (centres undefined) | -8.79%
COC(=O)[C@@H](Nc1nc(C2CCCC2)nc2c1cnn2C)[C@@H](C)O | -11.8%
Cc1cccc(C)c1OC1CN(Cc2cnc(N3CCCC3)nc2)C1 | 27.2%
CN1CCCC2(C1)CN(C(=O)C1CCCCC1)CCO2 (centres undefined) | -4.05%
